Test results reported in EPA's ToxRefDB 2.

Tests used:
rat [1] = conditions: Fertility (Segment I); Oral; Gavage/Intubation; dose end: 1 generation; group: parental; systemic / in life observation / clinical signs / alopecia + systemic / in life observation / clinical signs / respiration (rales) + …
rat [2] = conditions: Chronic toxicity, Oral, Feed, dose end: 182 day, group: systemic
rat [3] = conditions: Fertility (Segment I), Oral, Gavage/Intubation, dose end: 1 generation, group: parental
rat [4] = conditions: Sub-acute repeat dose toxicity, wistar, Oral, Gavage/Intubation, dose end: 14 day, group: systemic
rat [5] = conditions: Sub-acute repeat dose toxicity; wistar; Oral; Feed; dose end: 14 day; group: systemic; systemic / hematology / leukocyte (wbc) count differential / leukocyte (wbc) + systemic / hematology / lymphocyte / lymphocyte + systemic / …
dog [6] = conditions: Chronic toxicity; beagle; Oral; Gavage/Intubation; dose end: 364 day; group: systemic; systemic / organ weight / liver / absolute + systemic / pathology microscopic / testes / cellular alteration + systemic / pathology …
dog [7] = conditions: Sub-acute repeat dose toxicity, beagle, Oral, Gavage/Intubation, dose end: 14 day, group: systemic
rat [8] = conditions: Chronic toxicity, wistar, Oral, Feed, dose end: 182 day, group: systemic
rabbit = conditions: Prenatal developmental toxicity study, Oral, Gavage/Intubation, dose end: 19 GD
rat [9] = conditions: Prenatal developmental toxicity study, Oral, Gavage/Intubation, dose end: 18 GD
dog [10] = conditions: Chronic toxicity; beagle; Oral; Gavage/Intubation; dose end: 364 day; group: systemic; systemic / organ weight / liver / absolute + systemic / pathology microscopic / testes / cellular alteration + systemic / pathology …; remark: listed apart in the source
mouse = conditions: Carcinogenicity; cd1; Oral; Feed; dose end: 97 week; group: cholinesterase; cholinesterase / cholinesterase / cholinesterase / erythrocyte cholinesterase (che) + cholinesterase / cholinesterase / cholinesterase / …
rat [11] = conditions: Prenatal developmental toxicity study, Oral, Gavage/Intubation, dose end: 15 GD, group: maternal
rat [12] = conditions: Multigenerational reproductive toxicity study, Crl: CD(SD) BRVAF/Plus, Oral, [Not Specified], dose end: 2 generation
dog [13] = conditions: Subchronic oral toxicity in nonrodent, beagle, Feed, dose end: 90 day, group: cholinesterase, cholinesterase / cholinesterase / cholinesterase / plasma cholinesterase (che)
rat [14] = conditions: Combined chronic toxicity/carcinogenicity; fischer; Oral; Feed; dose end: 105 week; group: cholinesterase; cholinesterase / cholinesterase / cholinesterase / erythrocyte cholinesterase (che) + cholinesterase / cholinesterase / cholinesterase / …
dog [15] = conditions: Subchronic oral toxicity in nonrodent, beagle, Feed, dose end: 26 week
[16] = systemic / clinical chemistry / albumin-globulin ratio / albumin-globulin ratio + systemic / clinical chemistry / glucose / glucose + …
[17] = systemic / pathology gross / uterus / cyst + systemic / pathology microscopic / uterus / cyst + systemic / organ weight / testes / absolute…
[18] = systemic / in life observation / body weight / body weight gain + systemic / in life observation / clinical signs / abnormal feces + …
[19] = systemic / pathology microscopic / testes / dilatation
[20] = systemic / clinical chemistry / cytochrome p450, nos / cytochrome p450, nos
[21] = systemic / clinical chemistry / cytochrome p450, nos / cytochrome p450, nos + systemic / clinical chemistry / urea nitrogen / urea nitrogen…
[22] = systemic / clinical chemistry / [other] / [other] + systemic / clinical chemistry / alanine aminotransferase (alt/sgpt) / alanine …
[23] = systemic / pathology gross / full gross necropsy / rhabdomyosarcoma + systemic / clinical chemistry / albumin-globulin ratio / albumin-…
[24] = group: developmental, systemic / in life observation / body weight / fetal weight
[25] = group: maternal, systemic / in life observation / body weight / body weight
[26] = group: developmental, developmental / developmental malformation / bone / [other] + developmental / developmental malformation / bone / delayed ossification + …
[27] = group: maternal, systemic / in life observation / body weight / body weight + systemic / in life observation / body weight / body weight gain + systemic / in…
[28] = systemic / in life observation / body weight / body weight + systemic / in life observation / food consumption / food consumption
[29] = group: offspring, systemic / in life observation / body weight / offspring (pup) weight + systemic / in life observation / body weight / offspring (pup) …
[30] = group: parental, systemic / in life observation / body weight / body weight + systemic / in life observation / body weight / body weight gain + systemic / in…
[31] = group: reproductive, reproductive / reproductive performance / implantations / implantations
[32] = group: cholinesterase, cholinesterase / cholinesterase / cholinesterase / plasma cholinesterase (che) + cholinesterase / cholinesterase / cholinesterase / …
[33] = group: systemic, systemic / hematology / erythrocyte (rbc) count differential / erythrocyte (rbc) + systemic / hematology / hemoglobin (hgb) / hemoglobin (…

Work on `CCc1cc(C2=C(C(=O)O)N(c3ccccc3C(F)(F)F)S(=O)(=O)c3ccccc32)cc2c1OCO2` [Fandosentan] yielded an LEL (rat [1]) of 25 mg/kg/day, an LOAEL (rat [1]) greater than 250 mg/kg/day and an NEL (rat [1]) of less than 25 mg/kg/day. For the same molecule, the NOAEL (rat [1]) was no less than 250 mg/kg/day, the LOAEL (rat [2]; [16]) was greater than 300 mg/kg/day and the NOAEL (rat [2]; [16]) was no less than 300 mg/kg/day. For the same molecule, the LEL (rat [2]; [17]) was 75 mg/kg/day, the NEL (rat [2]; [17]) was less than 75 mg/kg/day and the LOAEL (rat [3]; [18]) was greater than 250 mg/kg/day. For the same molecule, the NOAEL (rat [3]; [18]) was no less than 250 mg/kg/day, the LEL (rat [3]; [19]) was 25 mg/kg/day and the NEL (rat [3]; [19]) was less than 25 mg/kg/day. It also gave an LEL (rat [4]; [20]) of 100 mg/kg/day, an NEL (rat [4]; [20]) of less than 100 mg/kg/day and an LOAEL (rat [4]; [21]) greater than 500 mg/kg/day. The NOAEL (rat [4]; [21]) was no less than 500 mg/kg/day, the LEL (rat [5]) was 100 mg/kg/day and the LOAEL (rat [5]) was greater than 750 mg/kg/day. The NEL (rat [5]) was less than 100 mg/kg/day, the NOAEL (rat [5]) was no less than 750 mg/kg/day and the LEL (dog [6]) was 10 mg/kg/day. It also gave an LOAEL (dog [6]) greater than 100 mg/kg/day, an NEL (dog [6]) of less than 10 mg/kg/day and an NOAEL (dog [6]) of no less than 100 mg/kg/day. The LOAEL (dog [7]; [22]) was greater than 200 mg/kg/day, the NOAEL (dog [7]; [22]) was no less than 200 mg/kg/day and the LEL (dog [7]; systemic / in life observation / clinical signs / defecation (diarrhea) + systemic / clinical chemistry / [other] / [other] + systemic / …) was 30 mg/kg/day. The LOAEL (rat [8]; [23]) was greater than 300 mg/kg/day, the NOAEL (rat [8]; [23]) was no less than 300 mg/kg/day and the LEL (rat [8]; [17]) was 75 mg/kg/day. For the same molecule, the NEL (rat [8]; [17]) was less than 75 mg/kg/day, the LEL (rabbit; [24]) was 50 mg/kg/day and the LOAEL (rabbit; [24]) was greater than 50 mg/kg/day. For the same molecule, the NOAEL (rabbit; [24]) was no less than 50 mg/kg/day, the LEL (rabbit; [25]) was 50 mg/kg/day and the LOAEL (rabbit; [25]) was greater than 50 mg/kg/day. The NEL (rabbit; [25]) was 25 mg/kg/day, the NOAEL (rabbit; [25]) was no less than 50 mg/kg/day and the LOAEL (rat [9]; [26]) was greater than 250 mg/kg/day. The NOAEL (rat [9]; [26]) was no less than 250 mg/kg/day, the LEL (rat [9]; group: developmental, developmental / developmental malformation / bone / [other] + developmental / developmental malformation / face / [other] + developmental / …) was 100 mg/kg/day and the LEL (rat [9]; [27]) was 250 mg/kg/day. For the same molecule, the LOAEL (rat [9]; [27]) was greater than 250 mg/kg/day, the NOAEL (rat [9]; [27]) was no less than 250 mg/kg/day and the LEL (dog [10]) was 10 mg/kg/day. The LOAEL (dog [10]) was greater than 100 mg/kg/day, the NEL (dog [10]) was less than 10 mg/kg/day and the NOAEL (dog [10]) was no less than 100 mg/kg/day.
`CCCSP(=O)(OCC)Oc1ccc(Br)cc1Cl` (centres undefined) [Profenofos] showed an LEL (mouse) of 4.54 mg/kg/day, an LOAEL (mouse) of 4.54 mg/kg/day and an NEL (mouse) of 0.14 mg/kg/day. It also gave an NOAEL (mouse) of 0.14 mg/kg/day, an LOAEL (rat [11]; [28]) of 60 mg/kg/day and an NEL (rat [11]; [28]) of 10 mg/kg/day. The NOAEL (rat [11]; [28]) was 30 mg/kg/day, the LEL (rat [11]; systemic / in life observation / food consumption / food consumption) was 30 mg/kg/day and the LEL (rat [12]; [29]) was 29 mg/kg/day. For the same molecule, the LOAEL (rat [12]; [29]) was 29 mg/kg/day, the NEL (rat [12]; [29]) was 7.3 mg/kg/day and the NOAEL (rat [12]; [29]) was 7.3 mg/kg/day. The LEL (rat [12]; [30]) was 29 mg/kg/day, the LOAEL (rat [12]; [30]) was 29 mg/kg/day and the NEL (rat [12]; [30]) was 7.3 mg/kg/day. The NOAEL (rat [12]; [30]) was 7.3 mg/kg/day, the LEL (rat [12]; [31]) was 29 mg/kg/day and the LOAEL (rat [12]; [31]) was greater than 29 mg/kg/day. For the same molecule, the NEL (rat [12]; [31]) was 7.3 mg/kg/day, the NOAEL (rat [12]; [31]) was no less than 29 mg/kg/day and the LEL (dog [13]) was 0.05 mg/kg/day. For the same molecule, the LOAEL (dog [13]) was 0.05 mg/kg/day, the NEL (dog [13]) was less than 0.05 mg/kg/day and the NOAEL (dog [13]) was less than 0.05 mg/kg/day. For the same molecule, the LEL (rat [14]) was 1 mg/kg/day, the LOAEL (rat [14]) was 1 mg/kg/day and the NEL (rat [14]) was 0.03 mg/kg/day. It also gave an NOAEL (rat [14]) of 0.03 mg/kg/day, an NOAEL (dog [15]; group: cholinesterase, cholinesterase / cholinesterase / cholinesterase / plasma cholinesterase (che) + cholinesterase / cholinesterase / cholinesterase / brain …) of 0.005 mg/kg/day and an LEL (dog [15]; [32]) of 0.005 mg/kg/day. The LOAEL (dog [15]; [32]) was 0.05 mg/kg/day, the NEL (dog [15]; [32]) was less than 0.005 mg/kg/day and the LEL (dog [15]; [33]) was 12.5 mg/kg/day. The LOAEL (dog [15]; [33]) was greater than 12.5 mg/kg/day, the NEL (dog [15]; [33]) was 2.5 mg/kg/day and the NOAEL (dog [15]; [33]) was no less than 12.5 mg/kg/day.
